Test results from US9029381B2, “Cyclopropyl amide derivatives” (Astrazeneca AB, priority 2007, dated 2015).

What was measured:
[1] = molecular target: human histamine H3 receptors (Homo sapiens (Human), UniProt Q9Y5N1); experiment: Histamine H3 SPA with the agonist radioligand [3H]-N-α-methylhistamine (hH3 binding); settings: inhibition of [3H]-N-α-methylhistamine (1.4 nM) binding to CHO-K1 membranes expressing full-length human H3 (isoform 445)
Procedure: Histamine H3 SPA with the Agonist Radioligand [^3H]-N-α-Methylhistamine
The H3 binding assay was/can be used to evaluate the ability of at least one compound in accordance with formula I, Ia, Ib, and/or Ic to inhibit [^3H]-N-α-methylhistamine binding to CHO-K1 membranes expressing human histamine H3 receptors (full-length H3, the most prevalent brain isoform 445). In 200 μl 96-well SPA format, human H3 membranes (12.5 μg protein/well) and 1.4 nM [^3H]-N-α-methylhistamine were/can be incubated with at least one compound in accordance with formula I, Ia, Ib, and/or Ic for 1.5 hrs to determine percent effect with respect to total (1% DMSO) and non-specific binding (10 μM imetit). […] Single poke (SP) testing can be done in triplicate.
Membranes, prepared from CHO-K1 cells stably expressing the human histamine H3 receptor, can be obtained from ACS.
Tested formula I, Ia, Ib, and/or Ic compounds were/can be provided as solubilized samples in neat DMSO. Serial dilutions were/can be performed in DMSO.
Plates were/can be 96-well Unifilter GF/B (Perkin Elmer, 6005177). Plates were/can be read on a Perkin Elmer TopCount. CPM data was/can be used to analyze unless DPM data generated by a quench curve was/is required.
• 1. 1 mg/ml BSA was/can be added to assay buffer (AB) on day of assay. • 2. Amounts required for bead/membrane pool in AB were/can be calculated: “P”−need 17.1 ml/assay plate+10 ml PlateMate excess. Buffer volume was/can be split between beads and membranes to allow for polytroning of membranes prior to addition to beads. • a. […] A minimum of 15 minutes was/can be waited prior to adding membranes (See b. below). • b. Membranes (hH3 membranes from CHO cells containing recombinant human H3 receptors, 11.7 mg/ml): membranes were/can be removed from −80° C. and thawed in RT waterbath. (0.0702 mg/ml×P) mg of membranes were/can be resuspended in the remaining volume not used with beads above for 12.5 μg/well final and homogenized briefly at polytron speed 5.0. The homogenized membrane mixture was/can be combined with the beads and a minimum of 30 minutes was/can be waited prior to dispensing to plate. • 3. Formula I, Ia, Ib, and/or Ic compounds: For Single Poke, 2 μl mM of a compound in accordance with formula I, Ia, Ib, and/or Ic was/can be dispensed to Optiplates (triplicate plates) for final a concentration of 10 μM. […] Imetit (see below) was/can be used as a control. • 4. […] [^3H]-N-α-methylhistamine ([^3H]-NAMH): A solution in AB at 14 nM, 10× final concentration of 1.4 nM was/can be prepared. 5 μl samples were/can be calculated in quadruplicate on the 13 counter. If concentration was/is 12-14.5 nM, no adjustment was/is may be required. (For IC50s, use final concentration on calculation tab of ABase template.) Assay • 1. […] 2 μl of the formula I, Ia, Ib, and/or Ic compound dilution was/can be mixed and then transferred into assay plates. DMSO was/can be removed and 2 μl of 100 μM Imetit was/can be added to the wells. • 3. 178 μl bead/membrane mixture was/can be dispensed into the assay plate. • 4. 20 μl [^3H]-NAMH was/can be added with Rapid Plate. The assay plate was/can be sealed and incubated for 1.5 hr on RT shaker at speed ˜6.5. • 5. The assay plate was/can be subsequently centrifuged at 1000 rpm for 10 minutes. • 6. The count was/can be performed on TopCount using one of the 3H SPA H3 Quench programs.
The DPM data was/can be analyzed when tSIS was/is less than that associated with 70% of full scale on the quench curve (tSIS<25%). Otherwise, CPM data was/is used.
(§1) The IC50 and nH can be determined by fitting the data to model 205 in XLfit: y=A+((B−A)/(1+((C/x)^D)). Guanosine 5′-O-(3-[^35S]thio)triphosphate [GTPγS] Binding Assay

[2] = molecular target: human Histamine H3 receptor (hH3R) (Homo sapiens (Human), UniProt Q9Y5N1); experiment: Guanosine 5'-O-(3-[35S]thio)triphosphate [GTPγS] binding assay; assay type: biochemical; settings: antagonist mode vs (R)-α-methyl histamine 30 nM; membranes from CHO cells expressing hH3R
Procedure: as §1
A GTPγS binding assay can be used to investigate antagonist properties of compounds in CHO cells (Chinese Hamster Ovary) transfected with human Histamine H3 receptor (hH3R). Membranes from CHO cells expressing hH3R (10 μg/well) are diluted in GTPγS assay buffer (20 mM Hepes, 10 mM MgCl2, 100 mM NaCl, pH 7.4) and preincubated with saponine (3 μg/ml), GDP (10 μM) and PVT-WGA SPA beads (125 μg/well) (Amersham) for 30 minutes. To determine antagonist activity, (R)-α-methyl histamine (30 nM) is added in 96 well SPA plate with [^35S]GTPγS (0.2 nM) and various concentration of H3R antagonists. The GTPγS binding assay is started with addition of the mixture membrane/saponine/GDP and incubated for 90 minutes at room temperature. The amount of bound [^35S]GTPγS is determined by using the MicroBeta Trilux counter (PerkinElmer). The percentage of [^35S]GTPγS bound in each sample is calculated as a percentage of that bound control sample incubated in absence of H3 antagonist. Duplicate determinations are obtained for each concentration, and the data are analyzed using ExcelFit4 to obtain the IC50.

Sequence of human Histamine H3 receptor (hH3R) (Q9Y5N1 whole entry): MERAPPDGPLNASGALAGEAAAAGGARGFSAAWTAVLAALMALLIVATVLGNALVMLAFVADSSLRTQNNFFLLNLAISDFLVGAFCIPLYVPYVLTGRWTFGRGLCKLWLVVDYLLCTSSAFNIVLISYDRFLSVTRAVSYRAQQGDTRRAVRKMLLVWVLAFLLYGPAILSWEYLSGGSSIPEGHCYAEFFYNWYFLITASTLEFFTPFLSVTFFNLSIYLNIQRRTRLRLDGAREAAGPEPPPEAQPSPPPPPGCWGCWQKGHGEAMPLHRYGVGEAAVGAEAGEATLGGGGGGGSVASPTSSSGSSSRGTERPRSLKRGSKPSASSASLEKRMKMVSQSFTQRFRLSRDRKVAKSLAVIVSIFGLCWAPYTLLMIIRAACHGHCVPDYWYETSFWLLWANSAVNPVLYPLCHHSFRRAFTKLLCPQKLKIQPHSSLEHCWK
Sequence of human histamine H3 receptors (Q9Y5N1 whole entry, canonical isoform): as the sequence (Q9Y5N1 whole entry) above

SMILES	IC50 [1]	IC50 [2]
CCCN1CCN(C(=O)[C@H]2C[C@@H]2c2ccccc2)CC1 (relative stereo) [Example 7, trans-(2-Phenylcyclopropyl)-(4-propylpiperazin-1-yl)methanone]	146 nM	39.7 nM
O=C([C@H]1C[C@@H]1c1ccc(N2CCCC2=O)cc1)N1CCN(C2CCC2)CC1 (relative stereo) [Example 17, trans-1-{4-[2-(4-Cyclobutylpiperazine-1-carbonyl)cyclopropyl]phenyl}pyrrolidin-2-one]	433 nM	196 nM
NC(=O)c1ccc([C@@H]2C[C@H]2C(=O)N2CCN(C3CCC3)CC2)cc1 (single isomer, unassigned; enantiomer 2) [Example 44, 4-((trans)-2-(4-cyclobutylpiperazine-1-carbonyl)cyclopropyl)benzamide, enantiomer 2]		834 nM
O=C([C@@H]1C[C@H]1c1ccc(Br)cc1)N1CCN(C2CCC2)CC1 [Example 15, (1R,2R)-(2-(4-bromophenyl)cyclopropyl)(4-cyclobutylpiperazin-1-yl)methanone]	3400 nM	262 nM
O=C([C@@H]1C[C@H]1c1ccccc1)N1CCN(C2CCC2)CC1 [Example 25, (4-cyclobutylpiperazin-1-yl)((1R,2R)-2-phenylcyclopropyl)methanone]	6420 nM	870 nM
CC(C)N1CCN(C(=O)C2CC2c2cnn(C)c2)CC1 (stereo not drawn) [Example 45, (4-isopropylpiperazin-1-yl)(2-(1-methyl-1H-pyrazol-4-yl)cyclopropyl)methanone]		127 nM

The next molecules have a lower IC50 [2] than those just listed; values first:

IC50 [1]	IC50 [2]	SMILES
29.1 nM	33.9 nM	O=C([C@H]1C[C@@H]1c1ccc(-c2cn[nH]c2)cc1)N1CCN(C2CCC2)CC1 (relative stereo) [Example 20, trans-{2-[4-(1H-Pyrazol-4-yl)phenyl]cyclopropyl}-(4-cyclobutylpiperazin-1-yl)methanone]
5.09 nM	23.9 nM	O=C([C@H]1C[C@@H]1c1cccc(N2CCCC2=O)c1)N1CCN(C2CCC2)CC1 (relative stereo) [Example 34, trans-1-(3-(2-(4-Cyclobutylpiperazine-1-carbonyl)cyclopropyl)phenyl)pyrrolidin-2-one]
14.4 nM	5.83 nM	NC(=O)c1ccc([C@@H]2C[C@H]2C(=O)N2CCN(C3CCC3)CC2)cc1 (relative stereo) [Example 42, 4-((trans)-2-(4-cyclobutylpiperazine-1-carbonyl)cyclopropyl)benzamide]
16.8 nM	6.81 nM	O=C([C@H]1C[C@@H]1c1ccc(Br)cc1)N1CCN(C2CCC2)CC1 [Example 14, (1S,2S)-(2-(4-bromophenyl)cyclopropyl)(4-cyclobutylpiperazin-1-yl)methanone]
3.49 nM	3.41 nM	O=C([C@H]1C[C@@H]1c1ccccc1)N1CCN(C2CCC2)CC1 [Example 24, (4-cyclobutylpiperazin-1-yl)((1S,2S)-2-phenylcyclopropyl)methanone]
	20.2 nM	O=C([C@H]1C[C@@H]1c1ccc(-c2cncnc2)cc1)N1CCN(C2CCC2)CC1 [Example 46, (4-cyclobutylpiperazin-1-yl)((1S,2S)-2-(4-(pyrimidin-5-yl)phenyl)cyclopropyl)methanone]
